From patent publication US7345049B2, “Phenylalanine derivatives” (Ajinomoto Co., Inc., priority 2003, dated 2008)
Structures can show the parent of a compound that is named as a salt.

molecular target: T1, VCAM-1/α4β1 integrin binding (Homo sapiens, UniProt P05556+P13612); assay: Assay of antagonistic activity to VCAM-1/α4β1 integrin binding under the existence of blood serum (Jurkat cell adhesion to VCAM-1/Fc); format: cell-based; conditions: Jurkat cells, recombinant human VCAM-1/Fc, 50% human blood serum
T1 construct: Jurkat (ATCC TIB-152), known to express integrin α4β1; endogenous in cells; host or cells: Jurkat (ATCC TIB-152)
T1 sequence (P13612 34-1032): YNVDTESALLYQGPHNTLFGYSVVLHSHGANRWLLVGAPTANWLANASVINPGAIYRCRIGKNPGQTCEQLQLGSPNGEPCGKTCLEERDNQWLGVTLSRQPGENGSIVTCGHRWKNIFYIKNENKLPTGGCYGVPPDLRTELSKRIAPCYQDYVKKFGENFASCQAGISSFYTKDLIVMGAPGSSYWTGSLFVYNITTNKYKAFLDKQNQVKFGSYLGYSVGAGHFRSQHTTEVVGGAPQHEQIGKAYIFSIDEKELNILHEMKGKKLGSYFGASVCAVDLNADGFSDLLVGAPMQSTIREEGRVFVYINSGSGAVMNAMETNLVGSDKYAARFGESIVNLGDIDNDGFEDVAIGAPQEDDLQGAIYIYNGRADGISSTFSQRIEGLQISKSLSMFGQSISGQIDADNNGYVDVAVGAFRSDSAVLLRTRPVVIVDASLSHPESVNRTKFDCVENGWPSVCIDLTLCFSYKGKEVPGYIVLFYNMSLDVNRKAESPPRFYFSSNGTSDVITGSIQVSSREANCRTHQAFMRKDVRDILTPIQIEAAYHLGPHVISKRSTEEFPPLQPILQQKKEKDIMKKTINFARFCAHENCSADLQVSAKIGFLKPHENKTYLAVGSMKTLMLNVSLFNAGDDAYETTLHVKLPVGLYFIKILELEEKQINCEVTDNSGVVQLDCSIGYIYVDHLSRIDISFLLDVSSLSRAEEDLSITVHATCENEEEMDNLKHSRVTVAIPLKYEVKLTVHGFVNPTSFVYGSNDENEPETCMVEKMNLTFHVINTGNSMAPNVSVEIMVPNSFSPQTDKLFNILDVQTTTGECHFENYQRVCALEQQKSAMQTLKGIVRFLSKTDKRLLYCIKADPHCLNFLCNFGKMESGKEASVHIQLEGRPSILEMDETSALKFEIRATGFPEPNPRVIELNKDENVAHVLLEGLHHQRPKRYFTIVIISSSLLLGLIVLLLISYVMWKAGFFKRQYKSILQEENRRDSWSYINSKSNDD
T1 sequence (P05556 21-798): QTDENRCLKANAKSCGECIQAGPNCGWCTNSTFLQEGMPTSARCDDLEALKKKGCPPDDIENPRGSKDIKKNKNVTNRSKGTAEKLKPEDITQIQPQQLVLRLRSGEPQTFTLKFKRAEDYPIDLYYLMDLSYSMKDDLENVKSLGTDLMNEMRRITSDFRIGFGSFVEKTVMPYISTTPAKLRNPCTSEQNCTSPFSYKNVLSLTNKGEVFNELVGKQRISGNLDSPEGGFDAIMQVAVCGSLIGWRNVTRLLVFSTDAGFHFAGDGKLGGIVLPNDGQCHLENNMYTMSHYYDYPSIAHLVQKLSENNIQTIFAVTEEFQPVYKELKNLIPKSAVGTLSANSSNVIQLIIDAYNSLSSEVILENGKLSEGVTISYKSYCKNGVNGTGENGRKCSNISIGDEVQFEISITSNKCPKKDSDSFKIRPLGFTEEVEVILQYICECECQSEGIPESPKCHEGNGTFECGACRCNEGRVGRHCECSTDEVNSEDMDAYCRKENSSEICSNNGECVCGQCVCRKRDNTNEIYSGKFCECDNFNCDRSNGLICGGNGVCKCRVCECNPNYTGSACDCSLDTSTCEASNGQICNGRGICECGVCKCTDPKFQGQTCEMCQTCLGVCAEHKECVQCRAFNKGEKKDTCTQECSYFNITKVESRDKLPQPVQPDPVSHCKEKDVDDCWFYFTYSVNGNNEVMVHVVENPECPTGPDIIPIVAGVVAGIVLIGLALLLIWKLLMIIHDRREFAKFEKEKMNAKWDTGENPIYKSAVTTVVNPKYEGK
Method: Assay of Antagonistic Activity to VCAM-1/α4β1 Integrin Binding Under the Existence of Blood Serum
The capacity of a test substance antagonistic to the binding of cell strain of human T cells, Jurkat (ATCC TIB-152), known to express integrin α4β1, to VCAM-1 was determined.
Fifty μl/well of a solution (500 ng/ml) of recombinant human VCAM-1/Fc (R & D systems) diluted with buffer A (0.1 M NaHCO3, pH 9.6) was added to a 96-well microtiter plate (Nunc Maxisorp). After the incubation at 4° C. overnight and washing once with PBS, a buffer (buffer B) obtained by diluting Block Ace (Snow Brand Milk Products Co., Ltd.) with PBS to ½ concentration was added in an amount of 150 μl/well. After the incubation at room temperature for 2 hours, buffer B was removed and the plate was washed with PBS once.
Jurkat cells were washed with Dulbecco modified Eagle medium (SIGMA, hereinafter referred to as “DMEM”) once. Then, the cells were again suspended in a binding buffer (DMEM containing 20 mM HEPES, 0.1% BSA, 2 mM MnCl2 and 50% human blood serum (Sigma)) to become 1×10^6 cells/mL.
Sixty μl of a test substance of various concentrations obtained by the dilution with the binding buffer was added to a round-bottom, 96-well plate (IWAKI). Immediately thereafter, 60 μl of the Jurkat cells (1×10^6 cells/ml) were added thereto and shaken on a plate shaker (IKA-Labortechnik, IKA-SCHUTTLER MTS-4) at 1000 rpm for 10 seconds. In 120 μL of the cell suspension to which the test substance was added, each 100 μL thereof was transferred on the VCAM-1/Fc-coated plate and incubated in dark place at room temperature for 60 minutes. After the shaking on the plate shaker at 1000 rpm for 30 seconds, the solution was immediately removed. Then, the unbound cells were removed by washing them with PBS once. A buffer C (PBS containing 0.82% Triton X-100) was added to the plate in an amount of 70 μL/well. After the shaking on the plate shaker at 1000 rpm for 5 minutes, the bound Jurkat cells were lysed. After centrifuging the cells on a plate centrifuge (SIGMA 4-15C) at room temperature at 2500 rpm for 5 minutes, 50 μL of supernatant thereof was transferred to a 96-well microtiter plate (Nunc Maxisorp). Each 50 μL of Substrate Buffer (Promega, CytoTox 96 Non-Radioactive Cytotoxicity Assay) was added thereto, shaken on a plate shaker at 1000 rpm for 10 seconds and reacted in dark place at room temperature for 30 minutes. Then, each 50 μL of Stop Solution (Promega, CytoTox 96 Non-Radioactive Cytotoxicity Assay) was added thereto and shaken on a plate shaker at 1000 rpm for 10 seconds. […] The absorbance thus obtained detects an activity of lactate dehydrogenase (LDH) dissolved in the supernatant of each well. Namely, the absorbance is proportional to the number of remaining Jurkat cells on the plate via the binding to VCAM-1. The test was conducted in duplicate and the binding rate of each test substance in various concentrations was determined while the absorbance of the test substance-free well was determined to be 100% and the absorbance of the Jurkat-cell-free well was determined to be 0%. The concentration for the 50% inhibition of binding, IC50, was calculated.

IC50 [nM]	SMILES
14	CN(C)CCN(C)c1ccc2c(c1)c(=O)n(-c1ccc(C[C@H](NC(=O)c3c(Cl)cccc3Cl)C(=O)O)cc1)c(=O)n2C [Example 4]
6.5	Cn1c(=O)n(-c2ccc(C[C@H](NC(=O)c3c(Cl)cccc3Cl)C(=O)O)cc2)c(=O)c2ccc(N3CCOCC3)cc21 [Example 39, N-(2,6-dichlorobenzoyl)-4-[1-methyl-7-(morpholine-4-yl)-2,4-quinazoline-dione-3-yl]-L-phenylalanine trifluoroacetate]
9.2	CNCCCOc1ccc2c(c1)c(=O)n(-c1ccc(C[C@H](NC(=O)c3c(Cl)cccc3Cl)C(=O)O)cc1)c(=O)n2C [Example 226]
8.4	CCN(C)c1ccc2c(c1)c(=O)n(-c1ccc(C[C@H](NC(=O)c3c(Cl)cccc3Cl)C(=O)O)cc1)c(=O)n2C [Example 139, N-(2,6-dichlorobenzoyl)-4-[6-ethylmethylamino-1-methyl-2,4-quinazoline-dione-3-yl]-L-phenylalanine]
11.7	CNCCc1ccc2c(c1)c(=O)n(-c1ccc(C[C@H](NC(=O)c3c(Cl)cccc3Cl)C(=O)O)cc1)c(=O)n2C [Example 230, N-(2,6-dichlorobenzoyl)-4-{1-methyl-6-[2-(methylamino)ethyl]-2,4-dioxo-1,2,3,4-tetrahydroquinazoline-3(2H)-yl}-L-phenylalanine]
14.2	CCN(CC)Cc1ccc2c(c1)c(=O)n(-c1ccc(C[C@H](NC(=O)c3c(Cl)cccc3Cl)C(=O)O)cc1)c(=O)n2C [Example 55]

system: lymphocytes in the peripheral blood; assay: Activity to elevate the number of lymphocytes in the peripheral blood in a rat; format: in vivo, male Wistar rat; conditions: oral, 3 mg/kg, 1 hour later, criterion 195% or more of vehicle group
Method: Activity to Elevate the Number of Lymphocytes in the Peripheral Blood in a Rat
The activity of the compounds of the present invention to elevate the number of lymphocytes in the rat was examined.
A dosing solution was prepared by dissolving the compounds of the present invention to dimethylsulfoxide, adding the mixed solution of polyethylene glycol 400: propylene glycol=1:1 and turning it upside and down repeatedly. The final concentration of DMSO was adjusted to become 2.5%.
The dosing solution of a test substance (3 mg/kg, 10 mg/kg or 30 mg/kg) was orally administered to a male Wistar rat (6 to 8 weeks age) in an amount of 4 mL/kg. After the settled time points after the administration, the blood was drawn from its abdominal large vein under anesthesia and stirred in a EDTA-2K coated container for blood collection. Then, the number of lymphocytes in the peripheral blood was determined by an automated comprehensive hematology analyzer (SF-3000, Sysmex). The test was executed in n=5, and the ratio (%) of the number of lymphocytes in the peripheral blood in a test-substance-administered group to that in a vehicle-treated group (a control group) was calculated while the average value of the number of lymphocytes in the peripheral blood in a control group was determined to be 100%.

SMILES	Elevation of lymphocytes in the peripheral blood, pass/failure
COC(=O)[C@H](Cc1ccc(-n2c(=O)c3cncnc3n(C)c2=O)cc1)NC(=O)c1c(Cl)cccc1Cl [Example 129, N-(2,6-dichlorobenzoyl)-4-(1-methyl-2,4-dioxo-1,2,3,4-tetrahydropyrimido[4,5-d]pyrimidine-3(2H)-yl)-L-phenylalanine methylester]	◯ (pass (criterion measure or more))

same assay, conditions: oral, 10 mg/kg, 6 hours later, criterion 150% or more of vehicle group

SMILES	Elevation of lymphocytes in the peripheral blood, pass/failure
CCNCc1ccc2c(=O)n(-c3ccc(C[C@H](NC(=O)c4c(Cl)cccc4Cl)C(=O)OC(C)C)cc3)c(=O)n(C)c2c1 [Example 156, N-(2,6-dichlorobenzoyl)-4-[7-ethylaminomethyl-1-methyl-2,4-quinazoline-dione-3-yl]-L-phenylalanine isopropylester]	◯ (pass (criterion measure or more))
CNCc1ccc2c(=O)n(-c3ccc(C[C@H](NC(=O)c4c(Cl)cccc4Cl)C(=O)OCC(C)C)cc3)c(=O)n(C)c2c1 [Example 158, N-(2,6-dichlorobenzoyl)-4-[7-methylaminomethyl-1-methyl-2,4-quinazoline-dione-3-yl]-L-phenylalanine isobutylester]	◯ (pass (criterion measure or more))
CNCc1ccc2c(=O)n(-c3ccc(C[C@H](NC(=O)c4c(Cl)cccc4Cl)C(=O)OC4CCCC4)cc3)c(=O)n(C)c2c1 [Example 157, N-(2,6-dichlorobenzoyl)-4-[7-methylaminomethyl-1-methyl-2,4-quinazoline-dione-3-yl]-L-phenylalanine cyclopentylester]	◯ (pass (criterion measure or more))
CCCNCc1ccc2c(=O)n(-c3ccc(C[C@H](NC(=O)c4c(Cl)cccc4Cl)C(=O)OC(C)C)cc3)c(=O)n(C)c2c1 [Example 159, N-(2,6-dichlorobenzoyl)-4-[1-methyl-7-propylaminomethyl-2,4-quinazoline-dione-3-yl]-L-phenylalanine isopropylester]	◯ (pass (criterion measure or more))

same assay, conditions: oral, 30 mg/kg, 12 hours later, criterion 150% or more of vehicle group

SMILES	Elevation of lymphocytes in the peripheral blood, pass/failure
CNCc1cc2c(=O)n(-c3ccc(C[C@H](NC(=O)c4c(Cl)cccc4Cl)C(=O)OC(C)C)cc3)c(=O)n(C)c2cc1F [Example 184, Isopropyl (2S)-2-[(2,6-dichlorobenzoyl)amino]-3-[4-(7-fluoro-1-methyl-6-[(methylamino)methyl]-2,4-dioxo-1,2,3,4-tetrahydro-3(2H)-quinazolinyl)phenyl]propanoate]	◯ (pass (criterion measure or more))
CC(C)OC(=O)[C@H](Cc1ccc(-n2c(=O)c3cc(CN)ccc3n(C)c2=O)cc1)NC(=O)c1c(Cl)cccc1Cl [Example 174, Isopropyl (2S)-3-[4-(6-(aminomethyl)-1-methyl-2,4-dioxo-1,2,3,4-tetrahydro-3(2H)-quinazolinyl)phenyl]-2-[(2,6-dichlorobenzoyl)amino]propanoate]	◯ (pass (criterion measure or more))
CNCCc1cc2c(=O)n(-c3ccc(C[C@H](NC(=O)c4c(Cl)cccc4Cl)C(=O)OC(C)C)cc3)c(=O)n(C)c2cc1F [Example 228, N-(2,6-dichlorobenzoyl)-4-{7-fluoro-1-methyl-6-[2-(methylamino)ethyl]-2,4-dioxo-1,2,3,4-tetrahydroquinazoline-3(2H)-yl}-L-phenylalanine isopropylester]	◯ (pass (criterion measure or more))
CNCc1ccc2c(c1)c(=O)n(-c1ccc(C[C@H](NC(=O)c3c(C)cccc3Cl)C(=O)OC(C)C)cc1)c(=O)n2C [Example 187, Isopropyl (2S)-2-[(2-chloro-6-methylbenzoyl)amino]-3-[4-(1-methyl-6-[(methylamino)methyl]-2,4-dioxo-1,2,3,4-tetrahydro-3(2H)-quinazolinyl)phenyl]propanoate]	◯ (pass (criterion measure or more))
CC(C)OC(=O)[C@H](Cc1ccc(-n2c(=O)c3cc(CO)ccc3n(C)c2=O)cc1)NC(=O)c1c(Cl)cccc1Cl [Example 234, N-(2,6-dichlorobenzoyl)-4-[6-(hydroxymethyl)-1-methyl-2,4-dioxo-1,2,3,4-tetrahydroquinazoline-3-(2H)-yl]-L-phenylalanine isopropylester]	◯ (pass (criterion measure or more))
CC(C)OC(=O)[C@H](Cc1ccc(-n2c(=O)c3cc(OCCN(C)C)ccc3n(C)c2=O)cc1)NC(=O)c1c(Cl)cccc1Cl [Example 155, N-(2,6-dichlorobenzoyl)-4-[6-(2-dimethylaminoethoxy)-1-methyl-2,4-quinazoline-dione-3-yl]-L-phenylalanine isopropylester]	◯ (pass (criterion measure or more))
